Assay results taken from patent US10670605B2, “Cysteine reactive probes and uses thereof” (The Scripps Research Institute, priority 2015, dated 2020).
Structures can show the parent of a compound that is named as a salt.

Columns and labels:
Assay in all cases: isoTOP-ABPP of compound-treated primary human T cells
Assay type in all cases: cell-based
[1] = biological target: Cys residues in primary human T cells (Homo sapiens, UniProt O14976); details: GAK C87 (O14976)
[2] = biological target: Cys residues in primary human T cells (Homo sapiens, UniProt Q96FV9); details: THOC1 C49 (Q96FV9)
[3] = biological target: Cys residues in primary human T cells (Homo sapiens, UniProt Q8N0Z8); details: PUSL1 C292 (Q8N0Z8); DMF 50 μM 4h
[4] = biological target: Cys residues in primary human T cells (Homo sapiens, UniProt P31153)
[5] = biological target: T1, Cys residues in primary human T cells (Homo sapiens, UniProt Q96GW9); details: MARS2 C425 (Q96GW9)
T1 sequence (Q96GW9 30-593): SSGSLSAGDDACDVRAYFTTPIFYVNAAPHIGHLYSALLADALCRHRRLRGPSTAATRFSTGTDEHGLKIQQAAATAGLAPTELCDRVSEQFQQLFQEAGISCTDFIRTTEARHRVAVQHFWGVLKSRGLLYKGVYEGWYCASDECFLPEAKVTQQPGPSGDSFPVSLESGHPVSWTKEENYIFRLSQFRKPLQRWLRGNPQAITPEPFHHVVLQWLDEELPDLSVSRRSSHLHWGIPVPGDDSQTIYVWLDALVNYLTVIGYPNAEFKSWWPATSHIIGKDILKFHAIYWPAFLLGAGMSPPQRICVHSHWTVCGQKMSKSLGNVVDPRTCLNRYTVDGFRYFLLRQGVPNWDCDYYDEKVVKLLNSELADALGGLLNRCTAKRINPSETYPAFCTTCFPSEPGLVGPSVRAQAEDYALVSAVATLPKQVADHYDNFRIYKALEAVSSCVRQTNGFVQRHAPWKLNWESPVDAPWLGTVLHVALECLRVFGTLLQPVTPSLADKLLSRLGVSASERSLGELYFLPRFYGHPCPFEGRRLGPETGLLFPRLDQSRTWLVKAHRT

[6] = biological target: T2, Cys residues in primary human T cells (Homo sapiens, UniProt O14920); details: IKBKB C464 (O14920)
T2 sequence (O14920 1-756): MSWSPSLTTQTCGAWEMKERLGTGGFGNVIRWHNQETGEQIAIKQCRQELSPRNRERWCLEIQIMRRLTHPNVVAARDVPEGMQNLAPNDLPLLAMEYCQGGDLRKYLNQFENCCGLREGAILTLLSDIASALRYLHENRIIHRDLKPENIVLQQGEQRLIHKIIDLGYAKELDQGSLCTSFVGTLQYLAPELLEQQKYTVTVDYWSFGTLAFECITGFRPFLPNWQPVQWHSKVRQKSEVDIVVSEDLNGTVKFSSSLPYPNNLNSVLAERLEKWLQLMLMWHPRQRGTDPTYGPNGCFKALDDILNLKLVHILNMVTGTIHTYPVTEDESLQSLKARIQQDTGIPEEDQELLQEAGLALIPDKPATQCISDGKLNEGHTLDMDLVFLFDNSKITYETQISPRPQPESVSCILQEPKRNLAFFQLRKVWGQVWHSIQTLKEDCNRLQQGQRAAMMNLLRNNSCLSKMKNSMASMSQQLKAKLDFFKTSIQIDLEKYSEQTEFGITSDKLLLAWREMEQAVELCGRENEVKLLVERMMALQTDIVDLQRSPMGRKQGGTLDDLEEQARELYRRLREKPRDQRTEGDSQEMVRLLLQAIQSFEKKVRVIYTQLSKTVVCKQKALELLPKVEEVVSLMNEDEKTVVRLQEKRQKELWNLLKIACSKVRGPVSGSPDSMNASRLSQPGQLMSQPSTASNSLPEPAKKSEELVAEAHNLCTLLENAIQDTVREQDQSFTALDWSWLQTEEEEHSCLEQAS

[7] = biological target: T3, Cys residues in primary human T cells (Homo sapiens, UniProt Q9Y4W2); details: LAS1L C456 (Q9Y4W2)
T3 sequence (Q9Y4W2 1-734): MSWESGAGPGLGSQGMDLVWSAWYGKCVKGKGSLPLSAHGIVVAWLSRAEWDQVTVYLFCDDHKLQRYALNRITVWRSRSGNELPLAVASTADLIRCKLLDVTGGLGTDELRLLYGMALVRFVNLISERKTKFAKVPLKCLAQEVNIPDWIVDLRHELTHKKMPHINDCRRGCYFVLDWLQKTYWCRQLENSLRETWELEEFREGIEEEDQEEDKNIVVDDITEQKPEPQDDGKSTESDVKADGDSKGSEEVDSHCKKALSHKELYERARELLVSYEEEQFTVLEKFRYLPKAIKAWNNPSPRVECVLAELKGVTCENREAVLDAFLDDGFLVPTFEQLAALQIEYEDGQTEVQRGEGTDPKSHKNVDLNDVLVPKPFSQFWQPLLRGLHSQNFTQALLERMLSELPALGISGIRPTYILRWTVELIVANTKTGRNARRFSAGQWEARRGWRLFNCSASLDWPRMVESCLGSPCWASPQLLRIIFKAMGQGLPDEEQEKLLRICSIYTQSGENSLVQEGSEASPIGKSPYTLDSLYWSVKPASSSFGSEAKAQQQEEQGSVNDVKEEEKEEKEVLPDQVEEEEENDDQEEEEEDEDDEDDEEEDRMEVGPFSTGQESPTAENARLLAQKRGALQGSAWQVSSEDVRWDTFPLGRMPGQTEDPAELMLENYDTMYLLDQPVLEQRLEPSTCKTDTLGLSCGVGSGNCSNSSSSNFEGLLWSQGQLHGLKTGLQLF

[8] = biological target: Cys residues in primary human T cells (Homo sapiens, UniProt Q15005); details: SPCS2 C17 (Q15005)
Sequence of Cys residues in primary human T cells (Homo sapiens, UniProt Q15005) (Q15005 whole entry): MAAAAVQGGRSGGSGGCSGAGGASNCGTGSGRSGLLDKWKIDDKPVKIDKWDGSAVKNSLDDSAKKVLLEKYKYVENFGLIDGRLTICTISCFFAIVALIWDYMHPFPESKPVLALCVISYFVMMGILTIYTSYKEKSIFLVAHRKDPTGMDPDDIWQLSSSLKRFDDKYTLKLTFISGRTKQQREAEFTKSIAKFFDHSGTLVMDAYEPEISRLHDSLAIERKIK

Sequence of Cys residues in primary human T cells (Homo sapiens, UniProt P31153) (P31153 whole entry): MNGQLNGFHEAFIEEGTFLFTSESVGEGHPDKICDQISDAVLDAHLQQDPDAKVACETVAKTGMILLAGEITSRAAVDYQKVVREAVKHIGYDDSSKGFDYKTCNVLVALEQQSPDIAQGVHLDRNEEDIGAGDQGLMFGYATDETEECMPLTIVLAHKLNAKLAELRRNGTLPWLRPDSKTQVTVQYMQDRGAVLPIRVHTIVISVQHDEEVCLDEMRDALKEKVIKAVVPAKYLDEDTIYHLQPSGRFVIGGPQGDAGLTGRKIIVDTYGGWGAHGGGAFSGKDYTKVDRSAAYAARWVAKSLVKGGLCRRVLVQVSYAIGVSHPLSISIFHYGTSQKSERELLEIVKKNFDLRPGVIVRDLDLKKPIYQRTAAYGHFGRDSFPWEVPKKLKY
Sequence of Cys residues in primary human T cells (Homo sapiens, UniProt O14976) (O14976 whole entry): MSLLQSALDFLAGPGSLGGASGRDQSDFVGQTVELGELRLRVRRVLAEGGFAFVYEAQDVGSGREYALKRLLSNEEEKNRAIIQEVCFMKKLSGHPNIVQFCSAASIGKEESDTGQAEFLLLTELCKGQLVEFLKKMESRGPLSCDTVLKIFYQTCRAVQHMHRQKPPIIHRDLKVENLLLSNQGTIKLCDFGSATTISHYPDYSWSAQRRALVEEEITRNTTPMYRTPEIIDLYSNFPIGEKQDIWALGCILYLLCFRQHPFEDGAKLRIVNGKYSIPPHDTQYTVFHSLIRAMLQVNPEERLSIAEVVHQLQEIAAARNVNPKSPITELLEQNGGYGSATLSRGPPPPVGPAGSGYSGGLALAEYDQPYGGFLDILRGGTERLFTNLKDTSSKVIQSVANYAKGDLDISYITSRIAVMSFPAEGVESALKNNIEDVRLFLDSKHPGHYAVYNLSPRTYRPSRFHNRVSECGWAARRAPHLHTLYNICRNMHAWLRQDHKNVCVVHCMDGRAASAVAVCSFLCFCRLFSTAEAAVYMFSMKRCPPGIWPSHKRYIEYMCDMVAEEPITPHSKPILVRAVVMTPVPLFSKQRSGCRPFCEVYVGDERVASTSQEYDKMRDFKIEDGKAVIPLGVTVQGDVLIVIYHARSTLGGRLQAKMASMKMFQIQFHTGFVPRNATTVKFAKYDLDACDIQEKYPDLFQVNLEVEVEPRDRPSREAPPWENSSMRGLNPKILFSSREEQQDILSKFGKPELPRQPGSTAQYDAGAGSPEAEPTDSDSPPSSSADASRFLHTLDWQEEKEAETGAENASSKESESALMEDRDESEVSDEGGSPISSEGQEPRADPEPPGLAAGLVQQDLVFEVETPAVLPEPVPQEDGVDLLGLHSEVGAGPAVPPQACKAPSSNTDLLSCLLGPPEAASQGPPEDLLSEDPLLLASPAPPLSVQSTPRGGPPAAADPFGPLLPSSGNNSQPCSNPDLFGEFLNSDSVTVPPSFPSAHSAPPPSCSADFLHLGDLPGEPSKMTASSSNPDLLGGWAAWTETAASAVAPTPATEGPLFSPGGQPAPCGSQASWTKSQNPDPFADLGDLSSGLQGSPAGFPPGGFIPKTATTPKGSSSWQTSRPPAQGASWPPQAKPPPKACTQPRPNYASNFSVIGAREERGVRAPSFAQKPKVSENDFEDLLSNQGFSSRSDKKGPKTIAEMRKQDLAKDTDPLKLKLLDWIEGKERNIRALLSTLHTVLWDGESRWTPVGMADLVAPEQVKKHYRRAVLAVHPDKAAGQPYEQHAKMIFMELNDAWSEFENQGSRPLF
Sequence of Cys residues in primary human T cells (Homo sapiens, UniProt Q96FV9) (Q96FV9 whole entry): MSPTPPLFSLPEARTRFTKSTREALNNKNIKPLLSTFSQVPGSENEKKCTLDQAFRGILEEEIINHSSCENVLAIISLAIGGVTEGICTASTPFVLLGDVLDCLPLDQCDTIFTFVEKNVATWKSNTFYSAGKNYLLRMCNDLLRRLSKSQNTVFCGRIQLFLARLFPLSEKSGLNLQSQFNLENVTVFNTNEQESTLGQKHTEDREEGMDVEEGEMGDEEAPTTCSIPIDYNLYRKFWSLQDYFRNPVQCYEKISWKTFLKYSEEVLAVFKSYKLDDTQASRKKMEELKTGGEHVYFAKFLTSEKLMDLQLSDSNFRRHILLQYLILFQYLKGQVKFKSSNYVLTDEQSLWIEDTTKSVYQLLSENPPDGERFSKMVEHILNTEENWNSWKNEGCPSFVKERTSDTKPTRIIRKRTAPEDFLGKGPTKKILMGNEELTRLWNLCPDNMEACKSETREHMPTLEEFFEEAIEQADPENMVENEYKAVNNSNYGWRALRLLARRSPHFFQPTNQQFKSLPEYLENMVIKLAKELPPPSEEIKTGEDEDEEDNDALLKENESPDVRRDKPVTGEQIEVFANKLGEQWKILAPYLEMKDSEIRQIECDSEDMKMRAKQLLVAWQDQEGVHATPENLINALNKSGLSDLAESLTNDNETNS
Sequence of Cys residues in primary human T cells (Homo sapiens, UniProt Q8N0Z8) (Q8N0Z8 whole entry): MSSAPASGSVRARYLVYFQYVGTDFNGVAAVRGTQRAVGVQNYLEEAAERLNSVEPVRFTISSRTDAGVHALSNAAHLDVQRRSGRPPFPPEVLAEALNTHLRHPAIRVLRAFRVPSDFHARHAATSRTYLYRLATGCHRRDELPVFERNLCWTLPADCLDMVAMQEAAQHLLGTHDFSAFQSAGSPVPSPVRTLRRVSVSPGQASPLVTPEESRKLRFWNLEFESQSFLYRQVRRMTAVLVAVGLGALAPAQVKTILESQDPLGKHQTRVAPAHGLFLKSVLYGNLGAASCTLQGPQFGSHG

## COC(=O)/C=C/C(=O)OC [DMF, dimethyl fumarate]
[1]; DMF 10 μM 4h
  R value (DMSO/DMF): 1.36
[1]; DMF 50 μM 2h
  R value (DMSO/DMF): 4.79
[2]; DMF 50 μM 1h
  R value (DMSO/DMF): 3.93
[2]; DMF 50 μM 2h
  R value (DMSO/DMF): 5.7
[3]
  R value (DMSO/DMF): 4.68
[4]; MAT2A C56 (P31153), DMF 50 μM 4h
  R value (DMSO/DMF): 4.17
[4]; MAT2A C104 (P31153), DMF 10 μM 4h
  R value (DMSO/DMF): 1.5
[4]; MAT2A C104 (P31153), DMF 50 μM 4h
  R value (DMSO/DMF): 4.11
[5]; DMF 10 μM 4h
  R value (DMSO/DMF): 1.84
[5]; DMF 25 μM 4h
  R value (DMSO/DMF): 2.86
[5]; DMF 50 μM 1h
  R value (DMSO/DMF): 2.23
[5]; DMF 50 μM 2h
  R value (DMSO/DMF): 4.16
[5]; DMF 50 μM 4h
  R value (DMSO/DMF): 5.3
[6]; DMF 10 μM 4h
  R value (DMSO/DMF): 2.59
[6]; DMF 50 μM 1h
  R value (DMSO/DMF): 3.96
[6]; DMF 50 μM 2h
  R value (DMSO/DMF): 10.12
[6]; DMF 50 μM 4h
  R value (DMSO/DMF): 20
[7]; DMF 10 μM 4h
  R value (DMSO/DMF): 1.29
[7]; DMF 50 μM 1h
  R value (DMSO/DMF): 1.8
[7]; DMF 50 μM 2h
  R value (DMSO/DMF): 3.42
[7]; DMF 50 μM 4h
  R value (DMSO/DMF): 5.61
[8]; DMF 10 μM 4h
  R value (DMSO/DMF): 1.42
[8]; DMF 25 μM 4h
  R value (DMSO/DMF): 2.41
[8]; DMF 50 μM 1h
  R value (DMSO/DMF): 2.25
[8]; DMF 50 μM 2h
  R value (DMSO/DMF): 3.86
[8]; DMF 50 μM 4h
  R value (DMSO/DMF): 5.09
